Laboratory results published in ChEMBL document CHEMBL1201862, “PubChem BioAssay data set” (2004).
The source made the active and inactive calls.

Experiments:
Hexokinase = Hexokinase (Trypanosoma brucei, UniProt Q38C41); assay: Confirmation assay for inhibitors of Trypanosoma brucei hexokinase 1-Analogue-first series. [Related pubchem assays (depositor defined):AID1430, AID1632, AID2516, AID2560, AID2579, AID2600, AID449725, AID492951]; assay type: functional
[1] = molecular target: T1, Tyrosine-protein phosphatase non-receptor type 7 (Homo sapiens, UniProt P35236); assay: redox-active compounds inhibiting HePTP phosphatase – biochemical, fluorescence, mechanism study (AID 2068); assay type: functional
T1 sequence (P35236 whole entry): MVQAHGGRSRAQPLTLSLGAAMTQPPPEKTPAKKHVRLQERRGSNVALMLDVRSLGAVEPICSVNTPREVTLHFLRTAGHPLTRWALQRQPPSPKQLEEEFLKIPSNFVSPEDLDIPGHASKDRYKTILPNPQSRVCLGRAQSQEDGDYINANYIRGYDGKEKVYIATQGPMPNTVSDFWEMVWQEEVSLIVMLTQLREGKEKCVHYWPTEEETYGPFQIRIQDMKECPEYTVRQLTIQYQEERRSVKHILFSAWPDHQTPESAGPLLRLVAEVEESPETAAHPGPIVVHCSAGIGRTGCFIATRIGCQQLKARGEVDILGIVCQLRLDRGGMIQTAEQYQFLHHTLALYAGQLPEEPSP

[2] = molecular target: G-protein coupled receptor 55 (Homo sapiens, UniProt Q9Y2T6); assay: selective activators of receptor GPR55 – imaging, U2OS cells, beta-arrestin-GFP redistribution, primary screen (AID 1961); assay type: functional
Sequence of G-protein coupled receptor 55 (Q9Y2T6 whole entry): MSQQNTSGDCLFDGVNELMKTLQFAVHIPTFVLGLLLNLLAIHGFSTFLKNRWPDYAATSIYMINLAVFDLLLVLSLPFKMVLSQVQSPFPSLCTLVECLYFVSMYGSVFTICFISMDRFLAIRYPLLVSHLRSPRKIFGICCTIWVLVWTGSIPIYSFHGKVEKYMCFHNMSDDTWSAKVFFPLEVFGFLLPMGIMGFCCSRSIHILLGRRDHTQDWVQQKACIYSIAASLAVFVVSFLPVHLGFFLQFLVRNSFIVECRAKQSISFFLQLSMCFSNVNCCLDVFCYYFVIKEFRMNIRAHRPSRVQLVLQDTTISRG

[3] = HPDE-C7 pancreatic duct cell viability loss – fluorescence, HTS (AID 430); assay type: functional, cell-based; conditions: Homo sapiens
[4] = viability loss of HPDE-C7K cells – cell-based, fluorescence, HTS, primary screen (AID 431); assay type: functional; conditions: Homo sapiens
[5] = molecular target: T2, Calpain-2 catalytic subunit (Sus scrofa, UniProt P43367); assay: m-calpain protease blockers, concentration series – biochemical, fluorogenic peptide substrate, dose response (AID 1420); assay type: functional
T2 sequence (P43367 whole entry): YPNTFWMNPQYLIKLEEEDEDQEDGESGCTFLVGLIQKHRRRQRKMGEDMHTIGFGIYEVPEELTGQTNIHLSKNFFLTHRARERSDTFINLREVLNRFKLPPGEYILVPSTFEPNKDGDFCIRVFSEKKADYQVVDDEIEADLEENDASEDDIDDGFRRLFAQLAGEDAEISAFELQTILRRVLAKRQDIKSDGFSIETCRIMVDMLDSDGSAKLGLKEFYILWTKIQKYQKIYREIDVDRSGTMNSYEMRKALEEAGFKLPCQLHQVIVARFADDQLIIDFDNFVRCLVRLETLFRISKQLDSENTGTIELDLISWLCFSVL

[6] = molecular target: Heat shock protein HSP 90-alpha (Homo sapiens, UniProt P07900); assay type: functional, organism-based
Streptococcus = assay: GAS UMAA2166 growth inhibition – luminescence, BacTiterGlo, counter-screen for streptokinase expression inhibitor project, dose response (AID 1915); assay type: functional, organism-based;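 also: potency for reduction of bacterial viability or growth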
[7] = molecular target: T3, Corticotropin-releasing factor receptor 2/Corticotropin-releasing factor-binding protein (Homo sapiens, UniProt P24387+Q13324); assay: Dose Response confirmation of uHTS hits for small molecule antagonists of the CRF-binding protein and CRF-R2 receptor complex.; assay type: functional; conditions: read-out: IC50_Mean
T3 sequence (Q13324 whole entry): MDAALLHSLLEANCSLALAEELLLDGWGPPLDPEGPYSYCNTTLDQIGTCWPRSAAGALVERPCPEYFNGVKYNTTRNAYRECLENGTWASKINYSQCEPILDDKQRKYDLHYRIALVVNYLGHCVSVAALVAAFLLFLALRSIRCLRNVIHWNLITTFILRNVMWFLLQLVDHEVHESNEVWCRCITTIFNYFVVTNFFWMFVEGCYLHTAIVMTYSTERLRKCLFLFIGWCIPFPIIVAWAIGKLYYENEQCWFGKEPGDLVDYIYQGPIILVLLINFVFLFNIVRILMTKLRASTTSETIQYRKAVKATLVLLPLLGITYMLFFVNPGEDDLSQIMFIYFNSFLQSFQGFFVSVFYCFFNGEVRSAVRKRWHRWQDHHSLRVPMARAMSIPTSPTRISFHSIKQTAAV
T3 sequence (P24387 whole entry): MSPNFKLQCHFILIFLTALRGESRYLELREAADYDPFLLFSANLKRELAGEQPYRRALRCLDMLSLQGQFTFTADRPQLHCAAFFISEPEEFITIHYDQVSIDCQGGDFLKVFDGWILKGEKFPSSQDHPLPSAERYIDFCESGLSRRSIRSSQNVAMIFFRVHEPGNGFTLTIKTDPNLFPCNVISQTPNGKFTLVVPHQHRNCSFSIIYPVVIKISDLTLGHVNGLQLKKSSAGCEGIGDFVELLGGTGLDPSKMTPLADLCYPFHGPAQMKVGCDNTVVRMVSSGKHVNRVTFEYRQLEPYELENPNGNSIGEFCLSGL

[8] = tested on: Streptococcus sp. 'group A'; assay: Streptococcus pyogenes SK(-)GAS viability under kanamycin – luminescence, BacTiterGlo, confirmation, counter-screen for streptokinase expression inhibitor project, dose response (AID 1900); assay type: functional, organism-based
[9] = molecular target: T3, Corticotropin-releasing factor receptor 2/Corticotropin-releasing factor-binding protein; assay: activators of CRF receptor 2 with binding protein – uHTS hits, confirmation (AID 602473); assay type: functional; conditions: read-out: EC50_Mean
[10] = molecular target: Disintegrin and metalloproteinase domain-containing protein 17 (Homo sapiens, UniProt P78536); assay: exosite inhibitors of ADAM17, dose response, biochemical (AID 743260)
Sequence of Disintegrin and metalloproteinase domain-containing protein 17 (P78536 whole entry, the tested form may be a part): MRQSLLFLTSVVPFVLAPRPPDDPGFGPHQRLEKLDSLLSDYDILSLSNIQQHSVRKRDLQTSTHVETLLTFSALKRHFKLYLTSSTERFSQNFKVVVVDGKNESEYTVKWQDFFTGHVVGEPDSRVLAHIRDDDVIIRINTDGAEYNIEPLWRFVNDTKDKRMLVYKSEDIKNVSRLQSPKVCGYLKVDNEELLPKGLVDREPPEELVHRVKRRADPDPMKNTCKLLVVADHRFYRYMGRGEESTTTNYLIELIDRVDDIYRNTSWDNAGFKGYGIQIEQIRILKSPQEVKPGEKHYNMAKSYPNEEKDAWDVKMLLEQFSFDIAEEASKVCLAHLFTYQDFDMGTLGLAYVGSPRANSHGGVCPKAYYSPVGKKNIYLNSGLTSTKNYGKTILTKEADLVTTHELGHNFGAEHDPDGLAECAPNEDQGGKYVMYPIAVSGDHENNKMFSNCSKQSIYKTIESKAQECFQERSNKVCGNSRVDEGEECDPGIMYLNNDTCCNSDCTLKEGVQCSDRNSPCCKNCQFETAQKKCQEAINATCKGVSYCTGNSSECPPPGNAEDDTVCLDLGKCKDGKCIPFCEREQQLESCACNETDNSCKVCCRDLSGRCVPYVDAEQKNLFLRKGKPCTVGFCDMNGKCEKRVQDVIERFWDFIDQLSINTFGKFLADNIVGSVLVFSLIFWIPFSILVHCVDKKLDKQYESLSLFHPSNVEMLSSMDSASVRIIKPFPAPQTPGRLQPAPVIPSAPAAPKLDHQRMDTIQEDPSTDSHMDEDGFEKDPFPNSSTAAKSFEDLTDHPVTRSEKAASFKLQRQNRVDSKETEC

Streptokinase A = molecular target: T4, Streptokinase A (Streptococcus pyogenes serotype M1, UniProt P10520); assay: viability-normalized secreted streptokinase activity reduction – plasminogen activation absorbance, OD405, dose response (AID 1914); assay type: functional, Streptococcus pyogenes M1 GAS;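 also: secreted streptokinase activity via plasminogen activation per viability signal from cell pellet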
T4 sequence (P10520 whole entry): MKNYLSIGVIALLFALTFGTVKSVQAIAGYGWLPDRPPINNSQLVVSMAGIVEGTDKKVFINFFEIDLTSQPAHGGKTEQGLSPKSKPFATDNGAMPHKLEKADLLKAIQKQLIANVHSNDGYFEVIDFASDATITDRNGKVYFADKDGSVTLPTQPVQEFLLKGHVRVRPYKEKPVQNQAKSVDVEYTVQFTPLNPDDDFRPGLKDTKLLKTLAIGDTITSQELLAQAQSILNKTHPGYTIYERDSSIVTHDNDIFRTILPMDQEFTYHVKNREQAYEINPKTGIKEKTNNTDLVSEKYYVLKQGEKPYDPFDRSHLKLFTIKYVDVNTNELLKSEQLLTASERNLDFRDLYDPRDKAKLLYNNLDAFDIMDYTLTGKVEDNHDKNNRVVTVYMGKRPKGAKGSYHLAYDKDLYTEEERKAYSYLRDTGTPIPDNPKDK

Sequence of Hexokinase (Q38C41 whole entry): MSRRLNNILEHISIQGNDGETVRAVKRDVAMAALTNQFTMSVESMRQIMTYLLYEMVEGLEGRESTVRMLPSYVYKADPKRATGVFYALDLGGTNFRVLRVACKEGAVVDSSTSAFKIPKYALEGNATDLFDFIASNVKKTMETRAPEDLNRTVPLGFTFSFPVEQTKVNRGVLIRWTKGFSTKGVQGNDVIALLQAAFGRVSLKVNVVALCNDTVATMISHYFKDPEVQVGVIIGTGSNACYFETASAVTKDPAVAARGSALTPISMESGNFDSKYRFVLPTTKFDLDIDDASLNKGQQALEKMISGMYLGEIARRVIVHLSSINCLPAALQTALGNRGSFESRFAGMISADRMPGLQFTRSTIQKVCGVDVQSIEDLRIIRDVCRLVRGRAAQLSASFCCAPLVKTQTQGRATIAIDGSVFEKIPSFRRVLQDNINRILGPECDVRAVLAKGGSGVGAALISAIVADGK

Structure (SMILES): COc1ccc(C(=O)NCC(=O)O)cc1
- IC50 (Hexokinase): > 25 µM (inactive)

Structure (SMILES): CCN(CC)C(=O)C1CCCN(C(=O)Nc2ccc3nc(-c4ccco4)c(-c4ccco4)nc3c2)C1 (stereo not given)
- IC50 [1]: 2.66 µM (active)

Structure (SMILES): CCCN(CCC)Cc1c(C(=O)N/N=C/c2c[nH]c3ccccc23)nnn1-c1nonc1N
- EC50 [2]: 0.905 µM (active)

Structure (SMILES): O=c1c2cc(Br)ccc2sn1-c1ccccc1
- IC50 (Hexokinase): > 25 µM (inactive)

Structure (SMILES): CCCOC(=O)c1ccc(Oc2c[nH]nc2-c2ccc(OCC)cc2O)cc1
- EC50 [3]: 6.6 µM (active)
- EC50 [4]: 6.96 µM (active)
- IC50 [5]: 19.6 µM (not active)
- AC50 [6]: 7.92 µM (active)
- EC50 [2]: > 32 µM (inactive)
- EC50 (Streptococcus): 33.8 µM (active)
- IC50 [7]: > 47.1 µM (inactive)
- EC50 [8]: 8.69 µM (active)
- EC50 [9]: > 53 µM (inactive)
- IC50 [10]: > 69.5 µM (inactive)
- EC50 (Streptokinase A): > 150 µM (not active)
